Measurements: paper PMC6359284, “Identification, Characterization, and Optimization of Integrin αvβ6-Targeting Peptides from a One-Bead One-Compound (OBOC) Library: Towards the Development of Positron Emission Tomography (PET) Imaging Agents” (Molecules, 2019)
Where “and” joins values, the source holds several entries; their conditions need not be identical. Equal entries are not always repeated. Where two headings read alike, the source gives them in different places. Square brackets hold non-standard residues; d marks the D form. Primed or numbered codes have the meaning given here. Ends that are not written are not given here. Peptide text beside a SMILES is read from it. * marks the point of attachment. (18F)FB = 4-[18F]fluorobenzoyl, radiolabelled form of FB, O=C(c1ccc([18F])cc1)*; PEG12 = NCCOCCOCCOCCOCCOCCOCCOCCOCCOCCOCCOCCOCCC(=O)O; Benzoyl(4-F) = O=C(c1ccc(F)cc1)*; PEG28′ = not defined here

Legend:
[1] = Serum stability assay in mouse serum; type: in vitro ADME; settings: 37 °C, radio-RP-HPLC
Protocol: Peptide stability was evaluated in mouse serum as previously described. In brief, formulated ^18F-radiolabeled peptide (~3.7 MBq in PBS) was incubated with mouse serum (500 μL, Sigma Aldrich, St. Louis, MO) at 37 °C for 1 h.

DX3puroβ6 (αvβ6+) cells = experiment: 18F-radiolabeled peptide cell binding assay, αvβ6+ cells; type: cell-based; settings: 60 min incubation at 37 °C, n = 3
Protocol: (§1) Cell binding assay was performed as previously described. […] The ^18F-radiolabeled peptide was prepared in a stock solution of 148 kBq in 1 mL PBS (pH 7.2). Aliquots of each ^18F-radiolabeled peptide (50 μL, 7.4 kBq per sample) were added to each cell sample and incubated at 37 °C for 1 h with frequent suspension. After incubation, each sample was centrifuged and the supernatant was collected. The cell pellet was washed with 500 μL PBS, centrifuged, and the supernatant was combined with the previously collected supernatant samples. The cell pellet was resuspended in 600 μL PBS and transferred to gamma counter tubes. All pellet and supernatant samples were measured in a Wizard 1470 gamma counter (Perkin Elmer, Waltham, MA, USA). Cell binding percentage for each cell line was calculated as the radioactivity associated, with pellet divided by the total radioactivity associated with both the pellet and supernatant.

DX3puro (αvβ6−) cells = experiment: 18F-radiolabeled peptide cell binding assay, αvβ6− cells; type: cell-based; settings: 60 min incubation at 37 °C, n = 3
Protocol: as §1

integrin αvβ6 = biological target: T1, integrin αvβ6 (Homo sapiens, UniProt P06756+P18564); experiment: Competitive binding ELISA, purified integrin αvβ6; settings: for selectivity ratio for integrin αvβ6 compared to αvβ5: from ELISA IC50 values
T1 construct: purchased R&D Systems
Protocol: (§2) Competitive binding ELISAs were performed to evaluate the binding affinity of each peptide relative to each integrin’s biotinylated natural ligand (transforming growth factor beta 1 latency-associated peptide or TGFβ1-LAP (G&P Biosciences, Santa Clara, CA, USA) for integrins αvβ6 and αvβ8, fibronectin (Thermo Fisher, Waltham, MA, USA) for integrin αvβ1, and vitronectin (Thermo Fisher) for integrins αvβ3 and αvβ5), as previously described. In brief, anti-αv antibody (P2W7, 5 μg/mL, Abcam) was plated (50 μL/well) at 37 °C for 1 h, washed with PBS (3×), and blocked overnight with blocking buffer (300 μL/well, 5% bovine serum albumin (BSA), 1% Tween 20, in PBS), followed by washing with PBS (3×). […] The plate was incubated at 37 °C for 1 h, then washed with wash buffer (3×). A 1:1000 dilution of ExtrAvidin Horseradish Peroxidase (HRP) was added to each well (50 μL/well), incubated at 37 °C for 1 h, and then washed with wash buffer (3×). The ExtrAvidin HRP was detected with 3,3′,5,5′-tetramethylbenzidine (50 μL/well, Promega, Madison, WI, USA) for 10–15 min at room temperature. The reaction was stopped by adding 1N H2SO4 (50 μL/well) and the absorbance was measured in a Multiscan Ascent plate reader (Thermo Fisher) at 450 nm. Half-maximal inhibitory concentration (IC50) of peptides was determined fitting to sigmoidal dose-response model in GraphPad Prism 5.0 (San Diego, CA, USA).

integrin αvβ8 = biological target: T2, integrin αvβ8 (Homo sapiens, UniProt P06756+P26012); experiment: Competitive binding ELISA, purified integrin αvβ8; settings: competitive ELISA vs biotinylated TGFβ1-LAP, n = 3
T2 construct: purchased R&D Systems
Protocol: as §2

integrin αvβ1 = biological target: T3, integrin αvβ1 (Homo sapiens, UniProt P05556+P06756); experiment: Competitive binding ELISA, purified integrin αvβ1; settings: competitive ELISA vs biotinylated fibronectin, n = 3
T3 construct: purchased R&D Systems
Protocol: as §2

integrin αvβ3 = biological target: T4, integrin αvβ3 (Homo sapiens, UniProt P05106+P06756); experiment: Competitive binding ELISA, purified integrin αvβ3; settings: competitive ELISA vs biotinylated vitronectin, n = 3
T4 construct: purchased R&D Systems
Protocol: as §2

[2] = competitive ELISA vs biotinylated TGFβ1-LAP, n = 3, read-out: IC50 (μM) αvβ6

| Compound | % Intact (1 h) [1] | % binding to DX3puroβ6 (αvβ6+) cells (DX3puroβ6 (αvβ6+) cells) | % binding to DX3puro (αvβ6−) cells (DX3puro (αvβ6−) cells) | IC50 (integrin αvβ6; [2]) [µM] | other results |
| --- | --- | --- | --- | --- | --- |
| RGDLADLRK([^18F]FB) (RGDLADLRK((18F)FB)) [[^18F]3] | 0% | 7.7 ± 3.8% | 5.3 ± 2.8% |  |  |
| CSCC[C@H](NC(=O)[C@H](CC(C)C)NC(=O)[C@H](CC(=O)O)NC(=O)CNC(=O)[C@@H](N)CCCNC(=N)N)C(=O)N[C@@H](CCCCN)C(=O)N[C@@H](CC(C)C)C(=O)N[C@@H](C)C(=O)N[C@@H](CCCCNC(=O)c1ccc(F)cc1)C(N)=O [compound 2] (H-RGDLMKLAK(Benzoyl(4-F))-NH2; N-terminus assumed) |  |  |  |  | IC50 (integrin αvβ6): 0.95 ± 0.17 µM; selectivity ratio for integrin αvβ6 compared to αvβ5 (integrin αvβ6): > 100 :1; IC50 (integrin αvβ8): 2.6 ± 0.35 µM |
| [^18F]FB-PEG28-A20FMDV2-K16R-PEG28 [reference compound] |  | 77.1 ± 0.1% | 1.5 ± 0.1% |  |  |
| VGDLTYLKK([^18F]FB)-PEG28 (VGDLTYLKK((18F)FB)[PEG28′]) [[^18F]1f] | > 95% and 95% | less than 2% | less than 2% |  |  |
| [^18F]FB-VGDLTYLKK ({(18F)FB}-VGDLTYLKK-NH2) [[^18F]1a] |  | less than 2% | less than 2% |  |  |
| RGDLRELAK([^18F]FB) (RGDLRELAK((18F)FB)) [[^18F]5] | 0% | 6.4 ± 0.1% | 5.9 ± 0.8% |  |  |
| CC(=O)N[C@H](C(=O)NCC(=O)N[C@@H](CC(=O)O)C(=O)N[C@@H](CC(C)C)C(=O)N[C@H](C(=O)N[C@@H](Cc1ccc(O)cc1)C(=O)N[C@@H](CC(C)C)C(=O)N[C@@H](CCCCN)C(=O)N[C@@H](CCCCNC(=O)c1ccc(F)cc1)C(=O)NCCOCCOCCOCCOCCOCCOCCOCCOCCOCCOCCOCCOCCOCCOCCOCCOCCOCCOCCOCCOCCOCCOCCOCCOCCOCCOCCOCCOCCC(N)=O)[C@@H](C)O)C(C)C [1g] |  |  |  | > 100 |  |
| CC(C)C[C@H](NC(=O)[C@H](CC(=O)O)NC(=O)CNC(=O)[C@@H](N)CCCNC(=N)N)C(=O)N[C@@H](C)C(=O)N[C@@H](CC(=O)O)C(=O)N[C@@H](CC(C)C)C(=O)N[C@@H](CCCNC(=N)N)C(=O)N[C@@H](CCCCNC(=O)c1ccc(F)cc1)C(N)=O [compound 3] (H-RGDLADLRK(Benzoyl(4-F))-NH2; N-terminus assumed) |  |  |  |  | selectivity ratio for integrin αvβ6 compared to αvβ5 (integrin αvβ6): > 100 :1 |
| CC(C)C[C@H](NC(=O)[C@H](Cc1ccc(O)cc1)NC(=O)[C@@H](NC(=O)[C@H](CC(C)C)NC(=O)[C@H](CC(=O)O)NC(=O)CNC(=O)[C@@H](NC(=O)CCOCCOCCOCCOCCOCCOCCOCCOCCOCCOCCOCCOCCN)C(C)C)[C@@H](C)O)C(=O)N[C@@H](CCCCN)C(=O)N[C@@H](CCCCNC(=O)c1ccc(F)cc1)C(N)=O [1d] (H-[PEG12]VGDLTYLKK(Benzoyl(4-F))-NH2; N-terminus assumed) |  |  |  | > 100 |  |
| CC(=O)N[C@H](C(=O)NCC(=O)N[C@@H](CC(=O)O)C(=O)N[C@@H](CC(C)C)C(=O)N[C@H](C(=O)N[C@@H](Cc1ccc(O)cc1)C(=O)N[C@@H](CC(C)C)C(=O)N[C@@H](CCCCN)C(=O)N[C@@H](CCCCNC(=O)c1ccc(F)cc1)C(N)=O)[C@@H](C)O)C(C)C [1b] |  |  |  | > 100 |  |
| CC(C)C[C@H](NC(=O)[C@H](CCC(=O)O)NC(=O)[C@H](CCCNC(=N)N)NC(=O)[C@H](CC(C)C)NC(=O)[C@H](CC(=O)O)NC(=O)CNC(=O)[C@@H](N)CCCNC(=N)N)C(=O)N[C@@H](C)C(=O)N[C@@H](CCCCNC(=O)c1ccc(F)cc1)C(N)=O [compound 5] (H-RGDLRELAK(Benzoyl(4-F))-NH2; N-terminus assumed) |  |  |  |  | IC50 (integrin αvβ1): 1.9 ± 0.3 µM; selectivity ratio for integrin αvβ6 compared to αvβ5 (integrin αvβ6): > 100 :1; IC50 (integrin αvβ6; read-out: IC50 (μM) αvβ6, competitive ELISA vs biotinylated TGFβ1-LAP, n = 3): 0.89 ± 0.14 µM |
| CN[C@H](C(=O)NCC(=O)N[C@@H](CC(=O)O)C(=O)N[C@@H](CC(C)C)C(=O)N[C@H](C(=O)N[C@@H](Cc1ccc(O)cc1)C(=O)N[C@@H](CC(C)C)C(=O)N[C@@H](CCCCN)C(=O)N[C@@H](CCCCNC(=O)c1ccc(F)cc1)C(N)=O)[C@@H](C)O)C(C)C [1c] |  |  |  | > 5 |  |
| VGDLTYLKK([^18F]FB)KVART [[^18F]1i] | > 99% and 99% | 5.0 ± 0.5% |  |  |  |
| CC[C@H](C)[C@H](NC(=O)CN)C(=O)N[C@@H](CC(=O)O)C(=O)N[C@@H](CC(C)C)C(=O)N[C@H](C(=O)N[C@@H](CO)C(=O)N[C@@H](CC(C)C)C(=O)N[C@H](C(=O)N[C@@H](CCCCNC(=O)c1ccc(F)cc1)C(N)=O)[C@@H](C)O)[C@@H](C)O [compound 4] (H-GIDLTSLTK(Benzoyl(4-F))-NH2; N-terminus assumed) |  |  |  | > 100 | IC50 (integrin αvβ3): > 100 µM |
| CC(C)C[C@H](NC(=O)[C@H](Cc1ccc(O)cc1)NC(=O)[C@@H](NC(=O)[C@H](CC(C)C)NC(=O)[C@H](CC(=O)O)NC(=O)CNC(=O)[C@@H](N)C(C)C)[C@@H](C)O)C(=O)N[C@@H](CCCCN)C(=O)N[C@@H](CCCCNC(=O)c1ccc(F)cc1)C(=O)NCCOCCOCCOCCOCCOCCOCCOCCOCCOCCOCCOCCOCCOCCOCCOCCOCCOCCOCCOCCOCCOCCOCCOCCOCCOCCOCCOCCOCCC(N)=O [1f] | > 95% | < 2% |  | 3.7 ± 1 |  |
| FB-VGDLTYLKK([^18F]FB)-PEG28 ({Benzoyl(4-F)}-VGDLTYLKK((18F)FB)[PEG28′]) [[^18F]1h] | > 95% and 95% | less than 2% | less than 2% |  |  |
| CC(C)C[C@H](NC(=O)[C@H](Cc1ccc(O)cc1)NC(=O)[C@@H](NC(=O)[C@H](CC(C)C)NC(=O)[C@H](CC(=O)O)NC(=O)CNC(=O)[C@@H](NC(=O)c1ccc(F)cc1)C(C)C)[C@@H](C)O)C(=O)N[C@@H](CCCCN)C(=O)N[C@@H](CCCCN)C(N)=O [1a] ({Benzoyl(4-F)}-VGDLTYLKK-NH2) |  |  |  | 0.81 ± 0.09 |  |
| CC(C)C[C@H](NC(=O)[C@H](Cc1ccc(O)cc1)NC(=O)[C@@H](NC(=O)[C@H](CC(C)C)NC(=O)[C@H](CC(=O)O)NC(=O)CNC(=O)[C@@H](NC(=O)c1ccc(F)cc1)C(C)C)[C@@H](C)O)C(=O)N[C@@H](CCCCN)C(=O)N[C@@H](CCCCNC(=O)c1ccc(F)cc1)C(N)=O [1e] |  |  |  | 0.84 ± 0.36 |  |
| CC(C)C[C@H](NC(=O)[C@H](Cc1ccc(O)cc1)NC(=O)[C@@H](NC(=O)[C@H](CC(C)C)NC(=O)[C@H](CC(=O)O)NC(=O)CNC(=O)[C@@H](N)C(C)C)[C@@H](C)O)C(=O)N[C@@H](CCCCN)C(=O)N[C@@H](CCCCNC(=O)c1ccc(F)cc1)C(N)=O [compound 1] (H-VGDLTYLKK(Benzoyl(4-F))-NH2; N-terminus assumed) |  |  |  |  | selectivity ratio for integrin αvβ6 compared to the other integrins (αvβ1, αvβ3, and αvβ5) (integrin αvβ6): > 200 :1; IC50 (integrin αvβ6; read-out: IC50 (μM) αvβ6): 0.45 ± 0.06 µM; IC50 (integrin αvβ8): 5.3 ± 0.14 µM |
| CC(C)C[C@H](NC(=O)[C@H](Cc1ccc(O)cc1)NC(=O)[C@@H](NC(=O)[C@H](CC(C)C)NC(=O)[C@H](CC(=O)O)NC(=O)CNC(=O)[C@@H](NC(=O)c1ccc(F)cc1)C(C)C)[C@@H](C)O)C(=O)N[C@@H](CCCCN)C(=O)N[C@@H](CCCCNC(=O)c1ccc(F)cc1)C(=O)NCCOCCOCCOCCOCCOCCOCCOCCOCCOCCOCCOCCOCCOCCOCCOCCOCCOCCOCCOCCOCCOCCOCCOCCOCCOCCOCCOCCOCCC(N)=O [1h] | > 95% | < 2% |  | 1.47 ± 0.23 |  |
| VGDLTYLKK([^18F]FB) (VGDLTYLKK((18F)FB)-NH2) [[^18F]1] | 25% | 12.8 ± 1.9% | 11.7 ± 2.2% |  |  |
